Reference: patent US11701336B2, “Method of determining composition effective for treating diabetes” (priority 2015, dated 2023)

Assays:
diabetic patients [1] = assay: Cancer in patients during diabetes mellitus treatment (survey and case reports); format: in vivo, human; conditions: person
From the text: On the other hand, it is widely known that the insulin itself may increase the risk of the cancer and many cancer patients can be found in the patients of the diabetes mellitus.

[2] = confirmed by manufacturers; cited from earlier work
diabetic patients [3] = assay: Blood glucose of the patient (casual, postprandial, glycemic control); format: in vivo, human
diabetic patients [4] = assay: HbA1c (glycated hemoglobin) of the patient under the prescription; format: in vivo, human; conditions: person; May 17, 2016, only the new drug (DPP4 inhibitor), before metformin+BCAA
From the text: (1) Step to measure HbA1c and lactate levels in patients
(3) Step to measure changes in HbA1c and lactate levels after administration of the composition to the patient,

diabetic patients [5] = assay: Side effects and clinical course, opinion of the doctor; format: in vivo, human; conditions: person; 4 mg antihypertensive diuretic
Procedure: For each prescription example, the glycemic status of the patient that is dependent on the administered active components and the component amount is measured using HbA1c (glycated hemoglobin) along with changes in the lactic acid value, and opinion of the doctor is recorded together with the change in the values.

Compound: N#C[C@@H]1CCCN1C(=O)CNC12CC3CC(CC(O)(C3)C1)C2 [Equa]
- Cancer developed during diabetes mellitus treatment (diabetic patients [1]; Case (10)): a bowel cancer was developed

Compound: O=C(O)[C@H](CC(=O)N1C[C@H]2CCCC[C@H]2C1)Cc1ccccc1 [GLUFAST]
- Lactic acidosis [2]: do not cause lactic acidosis

Compound: N[C@@H](CC(=O)N1CCn2c(nnc2C(F)(F)F)C1)Cc1cc(F)c(F)cc1F [JANUVIA, sitagliptin phosphate hydrate]
- Cancer developed during diabetes mellitus treatment (diabetic patients [1]; Case (13), treated from 2017, January 2019): A bone cancer was found

Compound: Cc1cc(N2CCN([C@@H]3CN[C@H](C(=O)N4CCSC4)C3)CC2)n(-c2ccccc2)n1 [TENELIA]
- Cancer developed during diabetes mellitus treatment (diabetic patients [1]; Case (15), dialysis, used until October 2017, April 2019): A lung cancer was developed

Compound: CC#CCn1c(N2CCC[C@@H](N)C2)nc2c1c(=O)n(Cc1nc(C)c3ccccc3n1)c(=O)n2C [Trazenta]
- Cancer developed during diabetes mellitus treatment (diabetic patients [1]; Case (9), used until October 2018): A vesical cancer was developed
- Cancer developed during diabetes mellitus treatment (diabetic patients [1]; Case (11), 5 mg, March 2019): A liver cancer was developed

Compound: Cn1c(=O)cc(N2CCC[C@@H](N)C2)n(Cc2cc(F)ccc2C#N)c1=O [Zafatek]
- postprandial blood glucose (diabetic patients [3]; person, May 9, 2016, before metformin+BCAA was started): 246 mg/dL
- HbA1c (diabetic patients [4]): 5.6%

Compound: NS(=O)(=O)c1cc2c(cc1Cl)NC(C(Cl)Cl)NS2(=O)=O (stereo not drawn) [fluitran]
- Effect on the condition of diabetes mellitus (diabetic patients [5]): worsened the condition of diabetes mellitus

Compound: CN(C)C(=N)NC(=N)N.Cl [metformin, metformin hydrochloride]
- Lung cancer by PET and MRI (diabetic patients [1]; Case (19), metformin 250 mg after HD from May 2019, after radiation therapy, April 2020): reduction of lung cancer was maintained and there was no metastasis
- Blood sugar level (diabetic patients [3]; Case (19), metformin 250 mg after HD, as of August 2020): stable

Compound: CC(C)[C@H]1CC[C@H](C(=O)N[C@H](Cc2ccccc2)C(=O)O)CC1 [nateglinide]
- Lactic acidosis [2]: do not cause lactic acidosis
